Experimental data taken from US20150159169A1, “Plants Tolerant to HPPD Inhibitor Herbicides” (Bayer CropScience AG, priority 2009, published 2015).

How the values were obtained:
[1] = biological target: Kordia algicida HPPD "SEQ ID No. 5" (FMP27e) (Kordia algicida, UniProt A9DQF2); experiment: HPLC assay of HPPD in vitro kinetic properties; assay type: biochemical
Experimental: Km, Vmax, and kcat values for different HPPD enzyme preparations and Ki, K1=Kon, and K−1=Koff for different HPPD inhibitors were determined using a HPLC assay for measurements of HPPD activity. […] All assays were started by the addition of HPPD enzyme to the assay mixture and stopped at a series of times between 0 and 240 s by addition of 200 μl of the reaction mixture to reaction assay tubes containing 20 μl 10% perchloric acid. Precipitated protein was pelleted by a 5 minute centrifugation at 10,000 g.
For Km and Vmax value determinations the initial rates of the HPPD reaction at different substrate concentrations were determined from plots of HGA formed versus time and fitted to the Michaelis-Menten equation for unireactant enzymes using the ID Business Solutions Ltd. (idbs.com) XLfit software suite.

[2] = tested on: T0 rice plants containing AtHPPD; experiment: Rice glasshouse response to tembotrione, injury classes; assay type: in vivo; settings: 100 g AI/ha, 7 DAT
Experimental: (§1) T0 rooted plantlets (either selected on phosphinothricin alone or on phosphinothricin supplemented with tembotrione) were transferred to soil in the glasshouse. Following an acclimation period, sufficiently grown plants were treated with the different HPPD inhibitor herbicides. As an example, T0 plants were sprayed with tembotrione of formulation type WP20 (100 g AI/ha) supplemented with ammonium sulfate and methyl ester raps oil. Seven days after the spray application, the symptoms due to the application of the herbicide were evaluated and compared the symptoms observed on wild type plants submitted to the same treatment.
(§2) The plants were classified in three categories based on the phenotype developed in response to the herbicide seven days after the treatment.

[3] = tested on: wild type rice plants; experiment: as above; assay type: in vivo; settings: 100 g AI/ha, 7 DAT; no transgene
Experimental: as §1, §2

[4] = tested on: T0 rice plants containing FMP27e; experiment: as above; assay type: in vivo; settings: 100 g AI/ha, 7 DAT
Experimental: as §1, §2

[5] = tested on: tobacco plants containing FMP27t-h, PAT and 2mEPSPS (pFCO116); experiment: Glasshouse response of three-tolerance-gene tobacco to herbicides, injury classes; assay type: in vivo, Nicotiana tobacum; settings: 100 g AI/ha, 9 DAT
Experimental: A binary vector for tobacco transformation is, for example, constructed with the CaMV35 promoter driving the expression of the gene FMP27t-h (SEQ ID No. 15), with a codon usage optimized for the expression in dicotyledoneous plants and at its 5′extremity was added a sequence coding for an OTP, and further upstream a sequence TEV (Tobacco etch virus) to improve the stability of the mRNA in plants followed by the CaMV35S terminator. The nucleotide sequence of the gene FMP27t-h is given in SEQ ID No. 15. Additionally, the transformation vector also contains a PAT gene cassette in which the gene is driven by a CaVM35S promoter and followed by a CaMV35S terminator for glufosinate based selection during the transformation process and a 2mEPSPS gene cassette in which the gene is driven by an histone promoter from Arabidopsis to confer tolerance to the herbicide glyphosate to the transformed plants (see FIG. 3 H). The binary vector was called pFCO116. The above vector was used to transform leaf disc obtained from Nicotiana tobacum plants, according to Example 3.
Transgenic tobacco plants were transferred to the greenhouse and treated with glyphosate at a rate of 1121 g AI/ha. Seeds were produced from such tolerant tobacco plants and harvested. These seeds were put on soil to germinate in the glasshouse. Three to four weeks later, 50 plantlets per event were transferred to single pots. Two weeks later, plants of a size 4-6 cm were sprayed either with
[…] […] Non-transgenic tobacco plants were completely killed by treatment using one or more of the above herbicides.

[6] = tested on: T0 tobacco plants expressing the FMP27 HPPD (FMP27t); experiment: Greenhouse response of T0 tobacco plants to tembotrione; assay type: in vivo, Nicotiana tabacum; settings: 100 g AI/ha, two weeks after treatment
Experimental: As an example, rooted plants containing the T-DNA PromCaMV35S-OTP-HIS6-FMP27t-TerCaMV35S, were transferred to the greenhouse under standard growth conditions. Following a period of acclimation of two weeks, the T0 plants were treated with a mixture containing 100 g tembotrione/ha prepared from a WP20 (wettable powder 20%) formulation supplemented with ammonium sulfate and methyl ester raps oil. Two weeks after the treatment, the symptoms due to the application of the herbicides were evaluated. The plants were classified in four categories. The treated plants evaluated as “0” are looking like the untreated tobacco plants. The plants evaluated as “1” display temporarily light bleaching phenotype due to the application of the herbicides. The plants evaluated as “2” display permanent light to strong bleaching symptoms. Finally the plants evaluated as “3” are looking like wild type tobacco plants submitted to the same treatment.

Sequence of Kordia algicida HPPD "SEQ ID No. 5" (FMP27e) (A9DQF2 entry or part of it): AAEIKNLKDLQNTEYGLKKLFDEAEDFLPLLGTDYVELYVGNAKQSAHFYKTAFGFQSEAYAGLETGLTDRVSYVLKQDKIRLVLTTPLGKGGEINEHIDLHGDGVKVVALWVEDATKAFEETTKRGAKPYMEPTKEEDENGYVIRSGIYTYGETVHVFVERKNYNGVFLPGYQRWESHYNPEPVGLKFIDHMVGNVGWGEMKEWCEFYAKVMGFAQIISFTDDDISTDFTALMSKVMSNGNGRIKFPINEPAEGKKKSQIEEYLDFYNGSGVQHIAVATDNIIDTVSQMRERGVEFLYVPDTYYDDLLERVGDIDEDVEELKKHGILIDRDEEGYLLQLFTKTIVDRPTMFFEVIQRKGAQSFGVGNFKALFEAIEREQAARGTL

`CS(=O)(=O)c1ccc(C(=O)C2C(=O)CCCC2=O)c(Cl)c1COCC(F)(F)F` [Tembotrione, 2-[2-chloro-4-(methylsulfonyl)-3-[(2,2,2,-tri-fluoroethoxy)methyl]benzoyl]-1,3-cyclo-hexanedione] was tested. Which Ki [1] did it give?
Its Ki is 33 µM.

What about the kon ([1]; read-out: k1 (=Kon)) of the same compound?
The kon was 490 M⁻¹ s⁻¹.

And the koff ([1]; read-out: k−1 (=Koff))?
The koff was 0.016 s⁻¹.

What about the “Class I, number of plants (no injuries)” value [2] of the same compound?
Its value is 1.

And the “Class II, number of plants (injury: 10-40%)” value (shortened to “Class II … (injury: 10-40%)”) [2]?
Its value is 13.

And the “Class III, number of plants (injury: 41-100%)” value (from here on “Class III … (injury: 41-100%)”) [2]?
The value was 9.

What about the “Class I, number of plants (no injuries)” value [3] of the same compound?
The value was 0.

And the “Class II … (injury: 10-40%)” value [3]?
Its value is 0.

What about the “Class III … (injury: 41-100%)” value [3] of the same compound?
The value was 20.

What about the “Class I, number of plants (no injuries)” value [4] of the same compound?
The value was 2.

What about the “Class II … (injury: 10-40%)” value [4] of the same compound?
The value was 17.

What about the “Class III … (injury: 41-100%)” value [4] of the same compound?
The value was 4.

And the “Class I, number of plants (no injuries)” value ([5]; line 639)?
The value was 7.

What about the “Class II … (injury: 10-40%)” value ([5]; line 639) of the same compound?
Its value is 3.

And the “Class III … (injury: 41-100%)” value ([5]; line 639)?
Its value is 0.

What about the “Class I, number of plants (no injuries)” value ([5]; line 714) of the same compound?
Its value is 5.

And the “Class II … (injury: 10-40%)” value ([5]; line 714)?
Its value is 1.

What about the “Class III … (injury: 41-100%)” value ([5]; line 714) of the same compound?
Its value is 4.

What about the “Class I, number of plants (no injuries)” value ([5]; line 717) of the same compound?
Its value is 4.

What about the “Class II … (injury: 10-40%)” value ([5]; line 717) of the same compound?
Its value is 2.

What about the “Class III … (injury: 41-100%)” value ([5]; line 717) of the same compound?
The value was 4.

What about the “number of plants in category 0 (looking like the untreated tobacco plants)” value [6] of the same compound?
The value was 11.

And the “number of plants in category 1 (temporarily light bleaching)” value [6]?
The value was 4.

And the “number of plants in category 2 (permanent light to strong bleaching)” value [6]?
The value was 10.

And the “number of plants in category 3 (like wild type plants submitted to the same treatment)” value [6]?
Its value is 4.
